Earlier results as cited in patent publication US8524293B1, “Method for producing a red grape tea-like composition” (priority 2009, dated 2013).

Key:
flu = details: laboratory animals
[1] = tested on: intestinal tumor formation; details: cancerous mouse

Row | Compound | risk of flu (flu) | focal adhesion kinase activation [1] | intestinal tumor formation [1]
1 | O=c1c(O)c(-c2ccc(O)c(O)c2)oc2cc(O)cc(O)c12 [quercetin] | reduce the risk of flu |  | 
2 | catechin |  | suppressed focal adhesion kinase activation | inhibited intestinal tumor formation
